In the supplement of paper PMC7600603:

Tests used:
DLD1 NRF2-GOF [1] = conditions: 72 h; CellTiter-Glo viability
Procedure, shortened: (§1)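 Isogenic DLD1 colorectal cancer cells, either NRF2 wild-type or CRISPR gain-of-function, were grown in DMEM with 10% FBS. They were exposed in 384-well plates to library compounds at 5 concentrations spanning a 10,000-fold range. After 72 h, viability was read by CellTiter-Glo on a Pherastar FS reader and normalised to vehicle wells and 100-μM positive-control wells. EC50 and drug sensitivity score (a normalised area under the curve) came from four-parameter logistic dose-response fits.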

DLD1 NRF2-WT [2] = conditions: 72 h; CellTiter-Glo viability
Procedure, shortened: as §1

DLD1 NRF2-GOF [3] = test: TC50 cytotoxicity; higher = less toxic; conditions: 72 h; CellTox Green cytotoxicity
Procedure, shortened: (§2)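 After growth in DMEM with 10% FBS, NRF2 wild-type and CRISPR-edited isogenic DLD1 cells were seeded in 384-well plates and given library compounds at 5 concentrations across a 10,000-fold range. Fluorescence from CellTox Green was taken on a Pherastar FS reader after 72 h and normalised against vehicle wells and 100-μM positive-control wells. From logistic dose-response fits of cytotoxicity came the TC50 and the drug sensitivity score, a normalised area under the curve.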

DLD1 NRF2-WT [4] = test: TC50 cytotoxicity; higher = less toxic; conditions: 72 h; CellTox Green cytotoxicity
Procedure, shortened: as §2

DLD1 NRF2-GOF [5] = test: drug sensitivity score (DSS) cytotoxicity (DSS score); higher = more toxic; extreme values may be limits of the assay; conditions: 72 h; CellTox Green cytotoxicity
Procedure, shortened: as §2

DLD1 NRF2-WT [6] = test: as above; conditions: 72 h; CellTox Green cytotoxicity
Procedure, shortened: as §2

DLD1 NRF2-GOF [7] = test: drug sensitivity score (DSS) viability (DSS score); higher = more sensitive; extreme values may be limits of the assay; conditions: 72 h; CellTiter-Glo viability
Procedure, shortened: as §1

DLD1 NRF2-WT [8] = test: as above; conditions: 72 h; CellTiter-Glo viability
Procedure, shortened: as §1

SMILES	EC50 viability (DLD1 NRF2-GOF [1])	EC50 viability (DLD1 NRF2-WT [2])	TC50 cytotoxicity (DLD1 NRF2-GOF [3])	TC50 cytotoxicity (DLD1 NRF2-WT [4])	drug sensitivity score (DLD1 NRF2-GOF [5])	drug sensitivity score (DLD1 NRF2-WT [6])	drug sensitivity score (DLD1 NRF2-GOF [7])	drug sensitivity score (DLD1 NRF2-WT [8])
C/C(=C\c1csc(C)n1)[C@@H]1C[C@@H]2O[C@]2(C)CCC[C@H](C)[C@H](O)[C@@H](C)C(=O)C(C)(C)[C@@H](O)CC(=O)N1 [Ixabepilone]	0.317 µM	0.407 µM	> 1 µM	0.201 µM	0.5	2.4	4.2	3.5
CC(C)C[C@H](NC(=O)CNC(=O)c1cc(Cl)ccc1Cl)B(O)O [Ixazomib]	0.125 µM	0.11 µM	0.246 µM	0.148 µM	6.8	9.6	10.3	11
Cc1sc2c(c1C)C(c1ccc(Cl)cc1)=N[C@@H](CC(=O)OC(C)(C)C)c1nnc(C)n1-2 [JQ1]	2.71 µM	0.272 µM	> 10 µM	> 10 µM	0	0	2.6	8.8
CC(C)NC(=O)COc1cccc(-c2nc(Nc3ccc4[nH]ncc4c3)c3ccccc3n2)c1 [KD025]	0.0429 µM	2.28 µM	> 5 µM	> 5 µM	0	0	5.4	1.8
Oc1ccc2c(c1)CC[C@H](c1ccccc1)[C@@H]2c1ccc(OCCN2CCCC2)cc1 [Lasofoxifene]	> 1 µM	> 1 µM	> 1 µM	> 1 µM	0	0	0	0
COc1cc2nccc(Oc3ccc(NC(=O)NC4CC4)c(Cl)c3)c2cc1C(N)=O [Lenvatinib]	> 2.5 µM	> 2.5 µM	> 2.5 µM	> 2.5 µM	0	0	0	0.1
Cc1ccc(F)c(NC(=O)Nc2ccc(-c3cccc4[nH]nc(N)c34)cc2)c1 [Linifanib]	> 1 µM	> 1 µM	> 1 µM	> 1 µM	0	0	1.1	0.5
C[C@]1(O)C[C@@H](c2nc(-c3ccc4ccc(-c5ccccc5)nc4c3)c3c(N)nccn32)C1 [Linsitinib]	> 10 µM	> 10 µM	> 10 µM	> 10 µM	0	0	0	0
NC(=O)N1CCC(CC(=O)N2CCC([C@H]3c4ncc(Br)cc4CCc4cc(Cl)cc(Br)c43)CC2)CC1 [Lonafarnib]	14.2 µM	10.5 µM	24.2 µM	23.5 µM	6.7	6.3	9.7	11
CNC(=O)c1cccc2cc(Oc3ccnc4cc(OCC5(N)CC5)c(OC)cc34)ccc12 [Lucitanib]	> 10 µM	0.796 µM	> 10 µM	> 10 µM	0	0	1.3	2.7
CCNC(=O)c1noc(-c2cc(C(C)C)c(O)cc2O)c1-c1ccc(CN2CCOCC2)cc1 [Luminespib]	0.0128 µM	0.0121 µM	> 1 µM	> 1 µM	0	0	21.4	22
O=C(O)CC[C@H]1CC[C@@](c2cc(F)ccc2F)(S(=O)(=O)c2ccc(Cl)cc2)CC1 [MK-0752]	0.0017 µM	> 1 µM	> 1 µM	> 1 µM	0	0	9.1	0.7
NC1(c2ccc(-c3nc4ccn5c(=O)[nH]nc5c4cc3-c3ccccc3)cc2)CCC1 [MK-2206]	> 1 µM	0.0522 µM	> 1 µM	> 1 µM	0	0	0.7	4.3
Cc1ccc(NC(=O)c2ccc(CN3CCN(C)CC3)cc2)cc1Nc1nc(-c2cccnc2)cs1 [Masitinib]	0.163 µM	1.8 µM	> 10 µM	> 10 µM	0	0	14.3	6.7
CC(=O)O[C@]1(C(C)=O)CC[C@H]2[C@@H]3C=C(C)C4=CC(=O)CC[C@]4(C)[C@H]3CC[C@@]21C [Megestrol acetate]	> 10 µM	> 10 µM	> 10 µM	> 10 µM	0	0	2.4	0
CCN(CC)CCCC(C)Nc1c2ccc(Cl)cc2nc2ccc(OC)cc12 (stereo unspecified) [Mepacrine]	1.51 µM	1.21 µM	7.07 µM	5.03 µM	9.9	11.7	18.2	19.4
Sc1ncnc2nc[nH]c12 [Mercaptopurine]	1.72 µM	4.29 µM	> 10 µM	> 10 µM	0	0	6.5	2.1
Cc1ccc(C(=O)Nc2ccc(Oc3cc4cnn(C)c4cc3-c3cn[nH]c3)c(F)c2)c(=O)n1-c1ccc(F)cc1 [Merestinib]	0.0986 µM	0.207 µM	> 1 µM	> 1 µM	0	0	7.9	4.2
CN(Cc1cnc2nc(N)nc(N)c2n1)c1ccc(C(=O)N[C@@H](CCC(=O)O)C(=O)O)cc1 [Methotrexate]	0.0297 µM	0.0355 µM	> 5 µM	> 5 µM	0	0	23.8	23.4
CO[C@@H]1[C@H](N(C)C(=O)c2ccccc2)C[C@H]2O[C@]1(C)n1c3ccccc3c3c4c(c5c6ccccc6n2c5c31)C(=O)NC4 [Midostaurin]	0.499 µM	0.88 µM	0.801 µM	0.686 µM	12.9	12.4	12.4	9.8
CNC(=O)c1nn(C)c2c1C(C)(C)Cc1cnc(Nc3ccc(N4CCN(C)CC4)cc3)nc1-2 [Milciclib]	1.19 µM	0.926 µM	> 10 µM	> 10 µM	0	0.5	8.5	10.8

SMILES	EC50 viability (DLD1 NRF2-GOF [1])	EC50 viability (DLD1 NRF2-WT [2])	TC50 cytotoxicity (DLD1 NRF2-GOF [3])	TC50 cytotoxicity (DLD1 NRF2-WT [4])	drug sensitivity score (DLD1 NRF2-GOF [5])	drug sensitivity score (DLD1 NRF2-WT [6])	drug sensitivity score (DLD1 NRF2-GOF [7])	drug sensitivity score (DLD1 NRF2-WT [8])
Clc1ccc(C(c2ccccc2Cl)C(Cl)Cl)cc1 (stereo unspecified) [Mitotane]	> 10 µM	> 10 µM	> 10 µM	> 10 µM	0	0	1.8	0
O=C1c2c(O)ccc(O)c2C(=O)c2c(NCCNCCO)ccc(NCCNCCO)c21 [Mitoxantrone]	0.0969 µM	0.0674 µM	> 1 µM	> 1 µM	0	0	10.1	12.3
N#CCNC(=O)c1ccc(-c2ccnc(Nc3ccc(N4CCOCC4)cc3)n2)cc1 [Momelotinib]	3.25 µM	2.8 µM	> 10 µM	> 10 µM	0.1	0.2	2.8	4.1
CCCN(CCC)C(=O)C1=Cc2ccc(-c3ccc(C(=O)N4CCCC4)cc3)cc2N=C(N)C1 [Motolimod]	1.33 µM	0.937 µM	> 10 µM	> 10 µM	0	0	3.6	4.4
O=C(Nc1ccc(OC(F)(F)Cl)cc1)c1cnc(N2CC[C@@H](O)C2)c(-c2cc[nH]n2)c1 [NVP-ABL001]	> 1 µM	> 1 µM	> 1 µM	> 1 µM	0	0	2.3	0.1
Nc1ncnc2c1c(-c1cccc(OCc3ccccc3)c1)cn2[C@H]1C[C@@H](CN2CCC2)C1 [NVP-AEW541]	3.12 µM	1.77 µM	> 10 µM	> 10 µM	1.5	0.1	5	6.8
CCN1CCN(c2ccc(Nc3cc(N(C)C(=O)Nc4c(Cl)c(OC)cc(OC)c4Cl)ncn3)cc2)CC1 [NVP-BGJ398]	> 1 µM	> 1 µM	> 1 µM	> 1 µM	0	0	0	0
COc1ccc(-c2ccc3ncc4c(c3c2)n(-c2ccc(N3CCNCC3)c(C(F)(F)F)c2)c(=O)n4C)cn1 [NVP-BGT226]	0.035 µM	0.0264 µM	0.359 µM	0.338 µM	4.1	4.4	16.2	17.5
Cc1ccc(C(=O)Nc2cccc(C(F)(F)F)c2)cc1Nc1nc(-c2cccnc2)nc2c1cnn2C [NVP-BHG712]	> 10 µM	> 10 µM	> 10 µM	> 10 µM	0	0	0.9	2.2
CN[C@@H](C)C(=O)N[C@H](C(=O)N1CCC[C@H]1c1nc(C(=O)c2ccc(F)cc2)cs1)C1CCCCC1 [NVP-LCL161]	2.36 µM	> 25 µM	> 25 µM	> 25 µM	0	0	4.8	2.1
CC(=O)c1cc2c(o1)C(=O)c1ccccc1C2=O [Napabucasin]	0.21 µM	0.361 µM	0.465 µM	0.617 µM	19.6	16.1	23.9	21
CCOc1cc2ncc(C#N)c(Nc3ccc(OCc4ccccn4)c(Cl)c3)c2cc1NC(=O)/C=C/CN(C)C [Neratinib]	0.305 µM	0.102 µM	> 1 µM	> 1 µM	0	0	2.2	5.7
Cc1cn(-c2cc(NC(=O)c3ccc(C)c(Nc4nccc(-c5cccnc5)n4)c3)cc(C(F)(F)F)c2)cn1 [Nilotinib]	0.983 µM	> 10 µM	> 10 µM	> 10 µM	0	0	4	2.5
COC(=O)c1ccc2c(c1)NC(=O)/C2=C(\Nc1ccc(N(C)C(=O)CN2CCN(C)CC2)cc1)c1ccccc1 [Nintedanib]	> 10 µM	> 10 µM	> 10 µM	> 10 µM	0	0.5	0	0.5
CC(O)c1cc(C(=O)N[C@@H](C)Cn2ccc(-c3ccc(C#N)c(Cl)c3)n2)n[nH]1 (stereo partly specified) [ODM-201]	> 2.5 µM	> 2.5 µM	> 2.5 µM	> 2.5 µM	0	0	0.9	0.2
CC(=O)c1cnc2ccc(-c3cc(Cl)c(O)c(Cl)c3)nc2c1N[C@H]1CC[C@H](CN(C)C)CC1 [OTS167]	0.0545 µM	0.0707 µM	> 1 µM	> 1 µM	3	0.6	13	12.8
COC(=O)C[C@](O)(CCCC(C)(C)O)C(=O)O[C@@H]1C(OC)=C[C@]23CCCN2CCc2cc4c(cc2[C@H]13)OCO4 [Omacetaxine]	0.0546 µM	0.0519 µM	0.329 µM	0.346 µM	8.4	10.1	26.9	27.6
COc1ncc(-c2ccc3nccc(-c4ccnnc4)c3c2)cc1NS(=O)(=O)c1ccc(F)cc1F [Omipalisib]	0.0253 µM	0.0071 µM	> 1 µM	> 1 µM	0	0	12.6	18.7
COC[C@H](NC(=O)c1cnc(C)s1)C(=O)N[C@@H](COC)C(=O)N[C@@H](Cc1ccccc1)C(=O)[C@@]1(C)CO1 [Oprozomib]	0.0504 µM	0.067 µM	0.116 µM	0.0569 µM	15.9	19.7	20.2	18.8
C=CC(=O)Nc1cc(Nc2nccc(-c3cn(C)c4ccccc34)n2)c(OC)cc1N(C)CCN(C)C [Osimertinib]	0.402 µM	0.424 µM	> 2.5 µM	> 2.5 µM	0	0.7	4.7	6.6
COc1ccccc1S(=O)(=O)Nc1ccc2c(c1)CN(C)C(=O)N2 [PFI-1]	> 30 µM	1.94 µM	> 30 µM	> 30 µM	0	0	0	3.2
